Among the data in patent US20120225061A1, “TETRASUBSTITUTED CYCLOHEXYL COMPOUNDS AS KINASE INHIBITORS” (priority 2011, published 2012) are EC50 and IC50 values, retold here.

SMILES strings stand for the structures.

For experiment [1], the system named is KMS11 (human myeloma cell line). Briefly: Cell proliferation assay (CellTiter-Glo) in KMS11 cells. The class given is cell-based. The following applies: KMS-11, 72 h, Table 5, 3 days, read-out: KMS11-luc EC50. As for the experimental part:
KMS11 (human myeloma cell line), were cultured in IMDM supplemented with 10% FBS, sodium pyruvate and antibiotics. Cells were plated in the same medium at a density of 2000 cells per well into 96 well tissue culture plates, with outside wells vacant, on the day of assay.
Test compounds supplied in DMSO were diluted into DMSO at 500 times the desired final concentrations before dilution into culture media to 2 times final concentrations.
After 3 days plates were equilibrated to room temperature and equal volume of CellTiter-Glow Reagent (Promega) was added to the culture wells. The plates were agitated briefly and luminescent signal was measured with luminometer.
For orientation: ATP-based viability assays read luminescence as a measure of living cells.

Experiment [2] addresses Pim1 kinase (Homo sapiens, UniProt P11309). Briefly: Pim1 AlphaScreen assay (high ATP). In general terms: In Alpha technology, singlet oxygen from a donor bead excites a nearby acceptor bead.
Method: (§1) The activity of Pim 1, Pim 2, & Pim 3 is measured using a homogeneous bead based system quantifying the amount of phosphorylated peptide substrate resulting from kinase-catalyzed phosphoryl transfer to a peptide substrate. Compounds to be tested are dissolved in 100% DMSO and directly distributed to a white 384-well plate at 0.25 μl per well. […] This is followed by the addition of 5 μl/well of Pim 1, Pim 2 or Pim 3 kinase in assay buffer (concentrations described below). Final assay concentrations (described below) are in 2.5% DMSO. The reactions are performed for ˜2 hours, then stopped by the addition of 10 μl of 0.75 μg/ml anti-phospho Ser/Thr antibody (Cell Signaling), 10 μg/ml Protein A AlphaScreen beads (Perkin Elmer), and 10 μg/ml streptavidin coated AlphaScreen beads in stop/detection buffer (50 mM EDTA, 95 mM Tris, pH=7.5, 0.01% Tween-20). The stopped reactions are incubated overnight in the dark. The phosphorylated peptide is detected via an oxygen anion initiated chemiluminescence/fluorescence cascade using the Envision plate reader (Perkin Elmer).
In experiment [3] the target is Pim2 kinase (Homo sapiens, UniProt Q9P1W9). Nature of the experiment: Pim2 AlphaScreen assay (high ATP).
Chain of Pim2 kinase (Q9P1W9 whole entry): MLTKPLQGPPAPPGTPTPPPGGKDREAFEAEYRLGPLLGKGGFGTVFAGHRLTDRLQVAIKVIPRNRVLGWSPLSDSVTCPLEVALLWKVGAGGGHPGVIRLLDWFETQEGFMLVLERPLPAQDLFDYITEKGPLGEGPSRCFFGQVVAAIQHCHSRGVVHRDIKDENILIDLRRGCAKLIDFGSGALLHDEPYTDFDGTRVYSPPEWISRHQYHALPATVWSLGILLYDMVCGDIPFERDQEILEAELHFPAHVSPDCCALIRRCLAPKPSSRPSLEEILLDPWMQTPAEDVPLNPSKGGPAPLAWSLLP
Experiment [4] concerns the target Pim3 kinase (Homo sapiens, UniProt Q86V86). Nature of the experiment: Pim3 AlphaScreen assay (high ATP).
Method: as §1

Chain of Pim1 kinase (P11309 whole entry): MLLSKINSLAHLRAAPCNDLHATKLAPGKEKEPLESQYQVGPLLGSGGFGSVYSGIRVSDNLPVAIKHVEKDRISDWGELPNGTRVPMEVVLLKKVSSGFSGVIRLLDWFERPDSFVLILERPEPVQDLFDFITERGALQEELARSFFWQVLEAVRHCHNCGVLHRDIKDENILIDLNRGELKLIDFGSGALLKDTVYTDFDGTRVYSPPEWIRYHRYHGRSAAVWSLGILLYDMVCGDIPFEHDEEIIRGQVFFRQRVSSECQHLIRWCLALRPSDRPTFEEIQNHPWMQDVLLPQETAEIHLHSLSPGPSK

Usually EC50 stands for the concentration that produces a half-maximal response. As usually defined, the IC50 is the concentration that gives 50% inhibition. A low value points to greater potency. Take `C[C@H]1C[C@@H](c2ccncc2NC(=O)c2ccc(F)c(-c3c(F)cc(CCO)cc3F)n2)C[C@@H](N)[C@]1(C)O` [Example 1, N-(4-((1R,3R,4R,5S)-3-amino-4-hydroxy-4,5-dimethylcyclohexyl)pyridin-3-yl)-6-(2,6-difluoro-4-(2-hydroxyethyl)phenyl)-5-fluoropicolinamide]: in experiment [1], the EC50 is 20 nM. In addition, the concentration for half-maximal inhibition (IC50) in experiment [2] was found to be 0.07 nM; in experiment [3], 3.2 nM.

For `CC[C@]1(O)[C@H](N)C[C@H](c2ccncc2NC(=O)c2ccc(F)c(-c3c(F)cccc3F)n2)C[C@@H]1C` [Example 11, N-(4-((1R,3R,4R,5S)-3-amino-4-ethyl-4-hydroxy-5-methylcyclohexyl)pyridin-3-yl)-6-(2,6-difluorophenyl)-5-fluoropicolinamide], the IC50 in experiment [2] worked out at 0.13 nM; in experiment [3], 8.1 nM; in experiment [4] it was 1.43 nM.

For the compound `CC[C@]1(O)[C@H](C)C[C@H](c2ccncc2NC(=O)c2ccc(F)c(-c3c(F)cccc3F)n2)C[C@@H]1N` [Example 12, N-(4-((1S,3S,4S,5R)-3-amino-4-ethyl-4-hydroxy-5-methylcyclohexyl)pyridin-3-yl)-6-(2,6-difluorophenyl)-5-fluoropicolinamide], the IC50 worked out at 26.2 nM in experiment [2], 1440 nM in experiment [3] and 303 nM in experiment [4].

Regarding `C[C@H]1C[C@@H](c2ccncc2NC(=O)c2ccc(F)c(-c3c(F)cc(C4COC4)cc3F)n2)C[C@@H](N)[C@]1(C)O` [Example 63, N-(4-((1R,3R,4R,5S)-3-amino-4-hydroxy-4,5-dimethylcyclohexyl)pyridin-3-yl)-6-(2,6-difluoro-4-(oxetan-3-yl)phenyl)-5-fluoropicolinamide], the EC50 in experiment [1] came to 84 nM. This compound yielded a 50% inhibitory concentration (IC50) in experiment [3] of 5.73 nM.

As for `C[C@H]1C[C@@H](c2ccncc2NC(=O)c2nc(-c3c(F)cccc3F)sc2N)C[C@@H](N)[C@]1(C)O` [Example 68, 5-amino-N-(4-((1R,3R,4R,5S)-3-amino-4-hydroxy-4,5-dimethylcyclohexyl)pyridin-3-yl)-2-(2,6-difluorophenyl)thiazole-4-carboxamide], in experiment [1], the EC50 is 24 nM. Also, half-maximal inhibition in experiment [3] (IC50) was put at 3.02 nM.

In the case of `CCOCc1cc(F)c(-c2nc(C(=O)Nc3cnccc3[C@H]3C[C@@H](N)[C@](C)(O)[C@@H](C)C3)ccc2F)c(F)c1` [Example 72, N-(4-((1R,3R,4R,5S)-3-amino-4-hydroxy-4,5-dimethylcyclohexyl)pyridin-3-yl)-6-(4-(ethoxymethyl)-2,6-difluorophenyl)-5-fluoropicolinamide], the EC50 in experiment [1] was 98 nM. This compound also had an IC50 in experiment [3] of 4 nM.

With `C[C@H]1C[C@@H](c2ccncc2NC(=O)c2ccc(F)c(-c3c(F)cc(C4(O)CCOCC4)cc3F)n2)C[C@@H](O)[C@]1(C)O` [Example 110, 6-(2,6-difluoro-4-(4-hydroxytetrahydro-2H-pyran-4-yl)phenyl)-N-(4-((1R,3R,4R,5S)-3,4-dihydroxy-4,5-dimethylcyclohexyl)pyridin-3-yl)-5-fluoropicolinamide], the EC50 in experiment [1] was found to be 322 nM.

Consider `CC(C)c1cc(F)c(-c2nc(C(=O)Nc3cnccc3[C@H]3C[C@@H](N)[C@](C)(O)[C@@H](C)C3)ccc2F)c(F)c1` [Example 117, N-(4-((1R,3R,4R,5S)-3-amino-4-hydroxy-4,5-dimethylcyclohexyl)pyridin-3-yl)-6-(2,6-difluoro-4-isopropylphenyl)-5-fluoropicolinamide], for which the EC50 in experiment [1] worked out at 256 nM. The IC50 was found to be 0.02 nM in experiment [2] and 1.39 nM in experiment [3].

Regarding `C[C@H]1C[C@@H](c2ccncc2NC(=O)c2ccc(F)c(-c3c(F)cc(C4CCS(=O)(=O)CC4)cc3F)n2)C[C@@H](N)[C@]1(C)O` [Example 119, N-(4-((1R,3R,4R,5S)-3-amino-4-hydroxy-4,5-dimethylcyclohexyl)pyridin-3-yl)-6-(4-(1,1-dioxidotetrahydro-2H-thiopyran-4-yl)-2,6-difluorophenyl)-5-fluoropicolinamide], in experiment [1], the EC50 was found to be 578 nM. For the same compound, the IC50 in experiment [3] was determined as 1.53 nM.
